Assay results as given in patent EP0323737A1, “4-Aralkyl-5-substituted-1,2,4-triazole-5-thiols” (SMITHKLINE BECKMAN CORPORATION, priority 1987, dated 1989).

Legend:
[1] = test system: spontaneously hypertensive rats; assay: mean arterial blood pressure in spontaneously hypertensive rats after oral dosing; assay type: in vivo; settings: 50 mg/kg orally, compared to vehicle-treated controls, approximate
Method: Further, spontaneously hypertensive rats were treated with a suspension or solution of 3-mercapto-4-benzyl-5-n- heptyl-1,2,4-triazole at a dose of 50 mg/kg orally, and mean arterial blood pressure was monitored for 260 minutes using indwelling cannulae in the tail arteries. […] Maximal blood pressure reduction was approximately 10 to 35 mm Hg.

[2] = Teresawa et al., Japan Cir. J. 35, 339 (1971); cited from earlier work

Row | SMILES | time after treatment to significant blood pressure reductions [1] [min] | toxic effect [2]
1 | CCCCCCCc1nnc(S)n1Cc1ccccc1 [Example 35, 3-Mercapto-4-benzyl-5-n-heptyl-1,2,4-triazole] | ≤ 30 | 
2 | CCCCc1ccc(C(=O)O)nc1 [fusaric acid] |  | hepatotoxic
